Measured values taken from patent US9938321B2, “Cyclic peptoid oligomers, pharmaceutical compositions and methods of using the same” (priority 2013, dated 2018).
Converted amounts (≈) assume the structure as drawn. Like-named read-outs stand apart in the source and are kept apart here. Blank lines part the entries; values can stand above or below the molecule they belong to. Non-standard residues stand in square brackets, D forms with d. Residues, ends and D or L forms follow the SMILES beside them. Gly(N(CH2)3NH2) = NCCCNCC(=O)O; Nphe = O=C(O)CNCc1ccccc1; Orn = NCCC[C@H](N)C(=O)O; Nlys = NCCCCNCC(=O)O

Columns and labels:
[1] = tested on: MRSA USA300 (S. aureus LAC)
Method: The cyclic pentamers and hexamers were evaluated for antimicrobial activity against S. aureus LAC, a clinical isolate of MRSA. The antimicrobial assay was conducted using previously published procedures (CLSI Broth Macrodilution Procedures CLSI M07-A7).
(§1) Minimum Inhibitory Concentrations (MIC) were determined against S. aureus LAC in RPMI media supplemented with or without normal human serum (NHS). The 10% hemolytic dose was determined from lysis of human erythrocytes. A selectivity ratio (SR) is defined as HC10/MIC. Cytotoxicity assays were performed using a CellTiter kit with HeLa cells. […] TI: therapeutic index defined as LD50/MIC.
(§2) Antimicrobial susceptibility assays were conducted in 96-well plates using the broth microdilution procedure outlined in the document M07-A7 of the CLSI (Clinical and Laboratory Standards Institute. Methods for Dilution Antimicrobial Susceptibility Tests for Bacteria That Grow Aerobically-Seventh Edition: Approved Standard CLSI document M07-A7. CLSI, Wayne, USA, 2006). Screens against Staphylococcus aureus LAC, MW2, Newman, and RN6734 were conducted in RPMI (Roswell Park Memorial Institute) medium. For assays in serum, normal human pooled serum (NHS) was filtered through a 0.45 μm syringe filter (Pall) prior to dilution with RPMI, such that each well contained 50% (v/v) NHS. Experiments were conducted in three independent replicates of three parallel trials to ensure statistical significance.
(§3) MRSA pulse-field gel electrophoresis types USA300 (strain LAC) (Kennedy, et al, Proc. Natl. Acad. Sci. U.S.A. 2008, 105, 1327-1332) and USA500 (BK2395) (Alonzo, 3rd, et al, Mol. Microbiol. 2012, 83, 423-435) were used in this study. S. aureus were grown in tryptic soy broth (BD Biosciences) as described previously. (Alonzo) Antimicrobial susceptibility assays were conducted in 96-well plates using the broth […] procedure outlined in the document M07-A7 of the CLSI. (Clinical and Laboratory Standards Institute. Methods for Dilution Antimicrobial Susceptibility Tests for Bacteria That Grow Aerobically-Seventh Edition: Approved Standard CLSI document M07-A7. CLSI, Wayne, USA, 2006). The screens against Staphylococcus aureus LAC were conducted in either LB (Luria-Bertani) or RPMI medium. For assays in serum, normal human pooled serum (NHS) was filtered through a 0.45 μm syringe filter (Pall) prior to dilution with RPMI, such that each well contained 50% (v/v) NHS. Experiments were conducted in three independent replicates of three parallel trials to ensure statistical significance.

human erythrocytes = assay type: cell-based; settings: red cells of human, 1 h
Source text: A detrimental property of most AMPs is their toxicity towards host cells due to non-specific interactions with eukaryotic membranes. Thus, the development of antimicrobial oligomers is often aimed at maximizing antimicrobial activity while minimizing eukaryotic cell toxicity. The inventors therefore sought to determine the toxicity of the cyclic peptoids by measuring hemolytic activity. The concentration of antimicrobial compound required to lyse 10% of human erythrocytes (HC10) following incubation for 1 hour at 37° C., was determined.
Hemolysis assays were conducted in 96-well plates using fresh human erythrocytes in PBS (phosphate-buffered saline) solution. Erythrocytes treated with a detergent (1% Triton X-100) solution were used as a positive control for erythrocyte lysis, and vehicle buffer (PBS) was used as a negative control. Hemolytic percentages were defined as [(A−Atestblank)/(Acontrol−Ablank)]×100, where A is the absorbance of the test well and Acontrol the average absorbance of wells with erythrocytes exposed to […], Atestblank (PBS and antimicrobial) and Ablank (PBS only).

in vitro = settings: for CC50 at 1 h / CC50: LC50 (50% lethal concentration), HeLa cells, 1 hr incubation at 37° C.
Method: (§4) As an additional parameter of selectivity, the inventors also evaluated the compounds for toxicity towards nucleated mammalian cells (FIG. 3). The compounds were incubated with HeLa cells for 1 hr at 37° C. and cell viability was determined by a dye-based assay.
(§5) HeLa cells (˜[…] cells per well) were seeded in a tissue culture-treated 96-well plate (Corning). The cells were monitored for confluence via light microscopy prior to the addition of compounds to a final volume of 100 μL/well. Following incubation with the compounds (for 1 hour or 24 hours at 37° C.), Cell Titer (Promega) was added to each well and the assay was allowed to develop for 1 hour at 37° C. Absorbance was then read at 490 nm using a Wallac Envision plate reader. The experiments were always conducted in triplicate with water or ethanol as the negative control. Percent cell viability (% CV) was calculated as the ratio of mean absorbance of the test wells and the mean absorbance of the water or ethanol treated wells.
(§6) Following seeding in DMEM supplemented with 10% v/v FBS (fetal bovine serum) in tissue-culture plates (Corning), adherent HeLa cells were trypsinized, washed in PBS, and re-suspended in medium at a density of 1×10^6 cells/mL. A 100 μL cell suspension was seeded onto a 96-well plate and cultured for 25 hrs. Subsequently, cells were exposed to the different compounds for 1 and 24 hrs and the cell viability evaluated using CellTiter 96® AQueous Non-Radioactive Cell Proliferation Assay (Promega).

[2] = tested on: MRSA USA300 (S. aureus LAC); settings: for decrease in anti-microbial activity in serum: 50% NHS versus no serum; for MIC + NHS: MRSA USA300 in 50% (v/v) normal human serum
Method: The antimicrobial activities of these four compounds were evaluated in the presence of serum. Such a consideration is critical in evaluating the potential of antimicrobial compounds to be used systemically, as serum components (e.g. proteins) may complicate antimicrobial activity. The assay was conducted similarly as described above, with the media supplemented with 50% normal human serum (NHS).
as §1, §2, §3

[3] = tested on: Plasmodium falciparum 3D7; settings: 3D7, 96 h
Method: In order to assess the ability of the peptoid oligomers described herein to act as antimalarial agents, fluorescence-based in vitro antimalarial assays were performed.
Cultures are maintained by changing the medium daily and keeping parasitemia below 6%. When performed, parasite cultures are synchronized using a MACS cell separation column (Miltenyi Biotec). To determine parasitemia, the number of parasitized erythrocytes from 500 cells in a Giemsa stained blood smear are counted.
Drug Treatment: • 1. Add 100 μL of warm (37° C.) complete media containing drug to each well of a 96 multi-well clear, sterile plate. • 2. […] After 96 hours of growth*, freeze at −80° C. overnight. *Note: Growth can be examined by pipetting 5 from desired wells onto slides and creating blood smears. […] After freezing, thaw at 37° C. for 4 hours. • 6. Transfer 100 μL, pipetting wells up and down to mix, to a black, sterile 96 well plate. • 7. Create working solution of 0.2 μL of SYBR Green per 1 mL of lysis buffer, and add 100 μL of this solution to each well, pipetting up and down to mix/lyse erythrocytes. *Note: mixture should be a translucent red color. • 8. Incubate at room temperature, protected from light, on a shaker for 1 hour.
Measure the fluorescence using excitation and emission wavelengths of 485 and 530 nm, respectively. […]

physchem = settings: water
S. aureus LAC = test: Scanning electron microscopy of treated cells (Example 1); assay type: cell-based, Staphylococcus aureus; settings: sub-MIC, MIC, or supra-MIC; 1 hr or 18 hr
Source text: AMPs have long been thought to exert their bactericidal activities by interacting with negatively-charged bacterial membranes (Zasloff, Nature 2002, 415, 389-395; Ivankin, et al, Angew. Chem. Int. Ed. 2010, 49, 8462-8465). While the exact mode of action has yet to be fully understood, the interaction of the AMP eventually leads to damage of the bacterial membrane that is visible by scanning electron microscopy (SEM). (Hartmann et al, 2010, Antimicrob Agents Ch 54, 3132-3142) SEM was used to examine the morphological changes which occur to the S. aureus cell surface upon exposure to peptoid antimicrobials (FIG. 2).
SEM samples were prepared following the procedure outlined in Hartmann et al ([…], Antimicrob Agents Ch 54:3132-3142). Mid-exponential S. aureus LAC in LB medium (10 g/L tryptone and 5 g/L yeast, pH 7.4) was prepared by diluting an overnight culture of S. aureus LAC in LB media till OD600˜0.4 (approximately 3 hours at 37° C.). […] After washing with PBS, the samples were treated with 30% ethanol for 10 minutes, 3% uranyl acetate (Electron Microscopy Sciences) in 30% ethanol/water, 50% ethanol for 10 minutes, and 70% ethanol overnight at 4° C. […]

HeLa cells = test: in vitro; settings: HeLa cells, 1 hr incubation at 37° C.
Method: as §4, §5, §6

[4] = Table 2, S. aureus LAC, clinical isolate of MRSA
[5] = Table 3, MRSA USA300, without serum

MIC ([1]; USA300): 3.9 µg/mL (≈ 3.95 µM)
Compound: NCCCN1CC(=O)N(Cc2ccc(C(F)(F)F)cc2)CC(=O)N(CCCN)CC(=O)N(Cc2ccc(C(F)(F)F)cc2)CC(=O)N(CCCN)CC(=O)N(Cc2ccc(C(F)(F)F)cc2)CC1=O [Compound C123, C(NapNptfmpm)3]

HC10 (concentration required to lyse 10% of human erythrocytes) (human erythrocytes): >250 µg/mL
Compound: NCCCN1CC(=O)N(Cc2ccccc2)CC(=O)N(CCCN)CC(=O)N(Cc2ccccc2)CC(=O)N(CCCN)CC(=O)N(Cc2ccccc2)CC1=O [Compound 23, C(NapNpm)3] (cyclo([Nphe][Gly(N(CH2)3NH2)][Nphe][Gly(N(CH2)3NH2)][Nphe][Gly(N(CH2)3NH2)]))

HC10 (concentration required to lyse 10% of human erythrocytes) (human erythrocytes): >250 µg/mL
Compound: NCCCCN1CC(=O)N(Cc2ccccc2)CC(=O)N(CCCCN)CC(=O)N(Cc2ccccc2)CC(=O)N(CCCCN)CC(=O)N(Cc2ccccc2)CC1=O [Compound 30, C(NabNpm)3] (cyclo([Nlys][Nphe][Nlys][Nphe][Nlys][Nphe]))

MIC ([1]; USA300): 3.9 µg/mL (≈ 3.88 µM)
Compound: NCCCN1CC(=O)N(c2ccc3c(c2)Cc2ccccc2-3)CC(=O)N(CCCN)CC(=O)N(c2ccc3c(c2)Cc2ccccc2-3)CC(=O)N(CCCN)CC(=O)N(c2ccc3c(c2)Cc2ccccc2-3)CC1=O [Compound C106, C(NapN2flene)3]

Compound: Cc1ccc(CN2CC(=O)N(CCCN)CC(=O)N(Cc3ccc(C)cc3)CC(=O)N(CCCN)CC(=O)N(Cc3ccc(C)cc3)CC(=O)N(CCCN)CC2=O)cc1 [Compound C122, C(NapNpmpm)3]
MIC [1, 4]: 15.6 µg/mL (≈ 18.9 µM)

Compound: NCCCN1CC(=O)N(Cc2cc(C(F)(F)F)cc(C(F)(F)F)c2)CC(=O)N(CCCN)CC(=O)N(Cc2cc(C(F)(F)F)cc(C(F)(F)F)c2)CC(=O)N(CCCN)CC(=O)N(Cc2cc(C(F)(F)F)cc(C(F)(F)F)c2)CC1=O [Compound C125, C(NapNbtfmb)3]
CC50 at 1 h (in vitro; human): 47 µg/mL (≈ 39.4 µM)
decrease in anti-microbial activity in serum [2]: sixteen-fold
MIC + NHS [2]: 62.5 µg/mL
MIC [1, 4]: 3.9 µg/mL (≈ 3.27 µM)
MIC [1, 5]: 3.9 µg/mL (≈ 3.27 µM)

MIC ([1]; USA300): 3.9 µg/mL (≈ 3.85 µM)
Compound: NCCCN1CC(=O)N(Cc2ccc(-c3ccccc3)cc2)CC(=O)N(CCCN)CC(=O)N(Cc2ccc(-c3ccccc3)cc2)CC(=O)N(CCCN)CC(=O)N(Cc2ccc(-c3ccccc3)cc2)CC1=O [Compound C105, C(NapNpp)3]

MIC ([1]; USA300): 3.9 µg/mL (≈ 3.56 µM)
Compound: NCCCN1CC(=O)N(CCC(c2ccccc2)c2ccccc2)CC(=O)N(CCCN)CC(=O)N(CCC(c2ccccc2)c2ccccc2)CC(=O)N(CCCN)CC(=O)N(CCC(c2ccccc2)c2ccccc2)CC1=O [Compound C103, C(NapNdpp)3]

IC50 [3]: 26.8 µM
Compound: COc1ccc(CN2CC(=O)N(CCCN)CC(=O)N(Cc3ccc(OC)c(OC)c3)CC(=O)N(CCCN)CC(=O)N(Cc3ccc(OC)c(OC)c3)CC(=O)N(CCCN)CC2=O)cc1OC [Compound C5-1]

Compound: NCCCN1CC(=O)N(CC(c2ccccc2)c2ccccc2)CC(=O)N(CCCN)CC(=O)N(CC(c2ccccc2)c2ccccc2)CC(=O)N(CCCN)CC(=O)N(CC(c2ccccc2)c2ccccc2)CC1=O [Compound C3, C(NapNdp)3]
CC50 (in vitro): 63 µg/mL (≈ 59.8 µM)
MIC + NHS [2]: 15.6 µg/mL

HC10 (concentration required to lyse 10% of human erythrocytes) (human erythrocytes): >62.5 µg/mL
Compound: N=C(N)NCCCCN1CC(=O)N(CC(c2ccccc2)c2ccccc2)CC(=O)N(CCCCNC(=N)N)CC(=O)N(CC(c2ccccc2)c2ccccc2)CC(=O)N(CCCCNC(=N)N)CC(=O)N(CC(c2ccccc2)c2ccccc2)CC(=O)N(CCCCNC(=N)N)CC(=O)N(CC(c2ccccc2)c2ccccc2)CC(=O)N(CCCCNC(=N)N)CC(=O)N(CC(c2ccccc2)c2ccccc2)CC1=O [Compound 31, C(NgbNdp)5]

MIC ([1]; USA300): 3.9 µg/mL (≈ 3.85 µM)
Compound: NCCCN1CC(=O)N(C(c2ccccc2)c2ccccc2)CC(=O)N(CCCN)CC(=O)N(C(c2ccccc2)c2ccccc2)CC(=O)N(CCCN)CC(=O)N(C(c2ccccc2)c2ccccc2)CC1=O [Compound C104, C(NapNdpm)3]

Compound: Cc1cc(C)cc(CN2CC(=O)N(CCCN)CC(=O)N(Cc3cc(C)cc(C)c3)CC(=O)N(CCCN)CC(=O)N(Cc3cc(C)cc(C)c3)CC(=O)N(CCCN)CC2=O)c1 [Compound C124, C(NapNdmb)3]
IC50 [3]: 17 µM
solubility (physchem): ≥ 15 mg/mL
cell morphology by SEM (S. aureus LAC): cell surface damage
HC10 (concentration required to lyse 10% of human erythrocytes) (human erythrocytes): 125 µg/mL
CC50 at 24 h (in vitro; human): ~100 µg/mL (≈ 115 µM)
CC50 at 1 h (in vitro; human): 180 µg/mL (≈ 207 µM)
LC50 (50% lethal concentration) (HeLa cells): ~180 µg/mL (≈ 207 µM)
decrease in anti-microbial activity in serum [2]: approximately four-fold
MIC + NHS [2]: 15.6 µg/mL
MIC [1, 4]: 3.9 µg/mL (≈ 4.49 µM)
MIC ([1]; USA300): 3.9 µg/mL (≈ 4.49 µM)

Compound: CC(C)C[C@@H]1NC(=O)[C@H](CCCN)NC(=O)[C@H](C(C)C)NC(=O)[C@@H]2CCCN2C(=O)[C@@H](Cc2ccccc2)NC(=O)[C@H](CC(C)C)NC(=O)[C@H](CCCN)NC(=O)[C@H](C(C)C)NC(=O)[C@@H]2CCCN2C(=O)[C@@H](Cc2ccccc2)NC1=O [Gramicidin S, reference compound] (cyclo(V[Orn]L[dF]PV[Orn]L[dF]P))
CC50 (in vitro): 31.3 µg/mL (≈ 27.4 µM)
MIC + NHS [2]: 31.3 µg/mL
MIC [1, 5]: 31.3 µg/mL (≈ 27.4 µM)
